The values that follow come from patent publication US11566002B2, “Substituted tetrahydrocyclopenta[C]pyrroles, substituted dihydropyrrolizines, analogues thereof, and methods using same” (priority 2018, dated 2023).

Structures are written as SMILES.

The test system of the first experiment is HBV rcDNA. Put plainly: HepDE19 assay with bDNA quantitation of HBV rcDNA. Format: cell-based, hepatitis B virus. As to conditions: HepDE19 cells, Tet-free medium, 7 day-incubation, rcDNA measured by Quantigene 2.0 bDNA assay, top concentration 25 μM; read-out: DE-19 bDNA EC50. As for the experimental part:
HepDE19 Assay with bDNA Quantitation of HBV rcDNA:
HepDE19 cell culture system is a HepG2 (human hepatocarcinoma) derived cell line that supports HBV DNA replication and cccDNA formation in a tetracycline (Tet)-regulated manner and produces HBV rcDNA and a detectable reporter molecule dependent on the production and maintenance of cccDNA (Guo, et al., 2007, J. Virol. 81:12472-12484).
HepDE19 (50,000 cells/well) were plated in 96-well collagen-coated tissue-culture treated microtiter plates in DMEM/F12 medium supplemented with 10% fetal bovine serum, 1% penicillin-streptomycin and 1 μg/mL tetracycline and incubated in a humidified incubator at 37° C. and 5% CO2 overnight. Next day, the cells were switched to fresh medium without tetracycline and incubated for 4 hours at 37° C. and 5% CO2. The cells were treated with fresh Tet-free medium with compounds at concentrations starting at 25 μM and a serial, ½ log, 8-point, titration series in duplicate. The final DMSO concentration in the assay was 0.5%. The plates were incubated for 7 days in a humidified incubator at 37° C. and 5% CO2. Following a 7 day-incubation, the level of rcDNA present in the inhibitor-treated wells was measured using a Quantigene 2.0 bDNA assay kit (Affymetrix, Santa Clara, Calif.) with HBV specific custom probe set and manufacturers instructions. Concurrently, the effect of compounds on cell viability was assessed using replicate plates, plated at a density of 5,000 cells/well and incubated for 4 days, to determine the ATP content as a measure of cell viability using the cell-titer glo reagent (CTG; Promega Corporation, Madison, Wis.) as per manufacturer's instructions. The plates were read using a Victor luminescence plate reader (PerkinElmer Model 1420 Multilabel counter) and the relative luminescence units (RLU) data generated from each well was calculated as % inhibition of the untreated control wells and analyzed using XL-Fit module in Microsoft Excel to determine EC50 and EC90 (bDNA) and CC50 (CTG) values using a 4-parameter curve fitting algorithm.
Representative compounds of the invention were tested for their abilities to inhibit formation of relaxed circular DNA (rcDNA) in a HepDE19 assay, as described elsewhere herein.
Consider `CNC(=O)NC1CCc2c1c[nH]c2C(=O)Nc1ccc(F)c(Cl)c1` (single isomer, unassigned) [Compound 10, N-(3-Chloro-4-fluorophenyl)-4-(3-methylureido)-2,4,5,6-tetrahydrocyclopenta[c]pyrrole-1-carboxamide], for which the EC50 stood at 16 µM.
As for `CNC(=O)NC1CCc2c1c[nH]c2C(=O)Nc1ccc(F)c(Cl)c1` (single isomer, unassigned) [Compound 11, N-(3-Chloro-4-fluorophenyl)-4-(3-methylureido)-2,4,5,6-tetrahydrocyclopenta[c]pyrrole-1-carboxamide], the EC50 was determined as 2.4 µM.
Consider `Cn1cc2c(c1C(=O)Nc1ccc(F)c(Cl)c1)CCC2NS(=O)(=O)C1CC1` (single isomer, unassigned) [Compound 13, N-(3-Chloro-4-fluorophenyl)-4-(cyclopropanesulfonamido)-2-methyl-2,4,5,6-tetrahydrocyclopenta [c]pyrrole-1-carboxamide], for which the EC50 was found to be 6.8 µM.
Consider `Cn1cc2c(c1C(=O)Nc1ccc(F)c(Cl)c1)CCC2NS(=O)(=O)C1CC1` (single isomer, unassigned) [Compound 14, N-(3-Chloro-4-fluorophenyl)-4-(cyclopropanesulfonamido)-2-methyl-2,4,5,6-tetrahydrocyclopenta [c]pyrrole-1-carboxamide], for which the EC50 is 0.07 µM.
With `CCn1cc2c(c1C(=O)Nc1ccc(F)c(Cl)c1)CCC2NS(=O)(=O)C1CC1` (single isomer, unassigned) [Compound 15, N-(3-Chloro-4-fluorophenyl)-4-(cyclopropanesulfonamido)-2-ethyl-2,4,5,6-tetrahydrocyclopenta[c]pyrrole-1-carboxamide], the EC50 is not below 25 µM.
With `CCn1cc2c(c1C(=O)Nc1ccc(F)c(Cl)c1)CCC2NS(=O)(=O)C1CC1` (single isomer, unassigned) [Compound 16, N-(3-Chloro-4-fluorophenyl)-4-(cyclopropanesulfonamido)-2-ethyl-2,4,5,6-tetrahydrocyclopenta[c]pyrrole-1-carboxamide], the EC50 is 0.13 µM.
For the molecule `CCn1cc2c(c1C(=O)Nc1ccc(F)c(Cl)c1)CCC2NC(=O)OCc1ncn(C)n1` (single isomer, unassigned) [Compound 19, (1-Methyl-1H-1,2,4-triazol-3-yl)methyl (1-((3-chloro-4-fluorophenyl)carbamoyl)-2-ethyl-2,4,5,6-tetrahydrocyclopenta[c]pyrrol-4-yl)carbamate], the EC50 amounted to 2.1 µM.
For `CCn1cc2c(c1C(=O)Nc1ccc(F)c(Cl)c1)CCC2NC(=O)OCc1ncn(C)n1` (single isomer, unassigned) [Compound 20, (1-Methyl-1H-1,2,4-triazol-3-yl)methyl (1-((3-chloro-4-fluorophenyl)carbamoyl)-2-ethyl-2,4,5,6-tetrahydrocyclopenta[c]pyrrol-4-yl)carbamate], the EC50 is 0.18 µM.
Turning to `Cn1cc2c(c1C(=O)Nc1ccc(F)c(Cl)c1)CCC2NC(=O)C1CC1` (single isomer, unassigned) [Compound 23, N-(3-Chloro-4-fluorophenyl)-4-(cyclopropanecarboxamido)-2-methyl-2,4,5,6-tetrahydrocyclopenta [c]pyrrole-1-carboxamide], the EC50 turned out to be 0.12 µM.
On the same count and under the same terms, in the case of `Cn1cc2c(c1C(=O)Nc1ccc(F)c(Cl)c1)CCC2NC(=O)C1CC1` (single isomer, unassigned) [Compound 24, N-(3-Chloro-4-fluorophenyl)-4-(cyclopropanecarboxamido)-2-methyl-2,4,5,6-tetrahydrocyclopenta [c]pyrrole-1-carboxamide] it was 1.6 µM.
Regarding `Cn1cnc(COC(=O)NC2CCc3c2cn(C)c3C(=O)Nc2ccc(F)c(Cl)c2)n1` (single isomer, unassigned) [Compound 25, (1-Methyl-1H-1,2,4-triazol-3-yl)methyl (1-((3-chloro-4-fluorophenyl)carbamoyl)-2-methyl-2,4,5,6-tetrahydrocyclopenta[c]pyrrol-4-yl)carbamate], the EC50 turned out to be 3.5 µM.

The experiment is the same for the next values; noted with them: Hepatitis B virus, HepDE19, 168 h, HepDE19 cells, Tet-free medium, 7 day-incubation, rcDNA measured by Quantigene 2.0 bDNA assay, top concentration 25 μM; read-out: DE-19 bDNA EC50.
As for `CNC(=O)NC1CCc2c1c[nH]c2C(=O)Nc1ccc(F)c(Cl)c1` (racemic) [Compound 8, N-(3-chloro-4-fluorophenyl)-4-(3-methylureido)-2,4,5,6-tetrahydrocyclopenta[c]pyrrole-1-carboxamide], the EC50 stood at 18 µM.
Still for that read-out and setting: in the case of `CC(C)OC(=O)C1(COC(=O)NC2CCc3c2cn(C)c3C(=O)Nc2ccc(F)c(Cl)c2)CC(F)(F)C1` (racemic) [Compound 46, isopropyl 1-((((1-((3-chloro-4-fluorophenyl)carbamoyl)-2-methyl-2,4,5,6-tetrahydrocyclopenta[c]pyrrol-4-yl)carbamoyl)oxy)methyl)-3,3-difluorocyclobutane-1-carboxylate] it was 2.3 µM; in that of `Cn1cc2c(c1C(=O)Nc1ccc(F)c(Cl)c1)CCC2NC(=O)OCC1(C(=O)O)CC(F)(F)C1` (racemic) [Compound 53, 1-((((1-((3-chloro-4-fluorophenyl)carbamoyl)-2-methyl-2,4,5,6-tetrahydrocyclopenta [c]pyrrol-4-yl)carbamoyl)oxy)methyl)-3,3-difluorocyclobutane-1-carboxylic acid], 2.7 µM; in that of `Cn1cc2c(c1C(=O)Nc1ccc(F)c(Cl)c1)CCC2NC(=O)OCc1nc[nH]n1` (racemic) [Compound 54, (1H-1,2,4-triazol-3-yl)methyl (1-((3-chloro-4-fluorophenyl)carbamoyl)-2-methyl-2,4,5,6-tetrahydrocyclopenta[c]pyrrol-4-yl)carbamate], 0.06 µM.
Same read-out and setting: in the case of `Cn1cc2c(c1C(=O)Nc1ccc(F)c(Cl)c1)CCC2NC(=O)OCc1nn[nH]n1` (racemic) [Compound 148, (2H-tetrazol-5-yl)methyl (1-((3-chloro-4-fluorophenyl)carbamoyl)-2-methyl-2,4,5,6-tetrahydrocyclopenta[c]pyrrol-4-yl)carbamate] it was 1.9 µM; in that of `CCn1cc2c(c1C(=O)Nc1ccc(F)c(Cl)c1)CCC2NC(=O)C1CC1` (single isomer, unassigned) [Compound 17, N-(3-Chloro-4-fluorophenyl)-4-(cyclopropanecarboxamido)-2-ethyl-2,4,5,6-tetrahydrocyclopenta[c]pyrrole-1-carboxamide], 4.9 µM.

Still in this experiment, the particulars now being: Hepatitis B virus, HepDE19, 168 h, read-out: DE-19 bDNA EC50 (μM), HepDE19 cells, Tet-free medium, 7 day-incubation, rcDNA measured by Quantigene 2.0 bDNA assay, top concentration 25 μM.
As to `COC(=O)NC1CCc2c1cn(C)c2C(=O)Nc1ccc(F)c(Cl)c1` (racemic) [Compound 1, methyl 1-(3-chloro-4-fluorophenylcarbamoyl)-2-methyl-2,4,5,6-tetrahydrocyclopenta[c]pyrrol-4-ylcarbamate], the EC50 amounted to 0.09 µM.
Turning to `CNC(=O)NC1CCc2c1cn(C)c2C(=O)Nc1ccc(F)c(Cl)c1` (racemic) [Compound 3, N-(3-chloro-4-fluorophenyl)-2-methyl-4-(3-methylureido)-2,4,5,6-tetrahydrocyclopenta[c]pyrrole-1-carboxamide], the EC50 was determined as 0.94 µM.

The same experiment, now with this note: read-out: DE-19 bDNA EC50; HepDE19 cells, Tet-free medium, 7 day-incubation, rcDNA measured by Quantigene 2.0 bDNA assay, top concentration 25 μM.
On to `COC(=O)NC1CCc2c1cn(C)c2C(=O)Nc1ccc(F)c(Cl)c1` (single isomer, unassigned) [Compound 4, Methyl 1-(3-chloro-4-fluorophenylcarbamoyl)-2-methyl-2,4,5,6-tetrahydrocyclopenta[c] pyrrol-4-ylcarbamate], for which the EC50 was 0.05 µM.
Consider `COC(=O)NC1CCc2c1cn(C)c2C(=O)Nc1ccc(F)c(Cl)c1` (single isomer, unassigned) [Compound 5, Methyl 1-(3-chloro-4-fluorophenylcarbamoyl)-2-methyl-2,4,5,6-tetrahydrocyclopenta[c] pyrrol-4-ylcarbamate], for which the EC50 worked out at 0.99 µM.
`Cn1ccc(COC(=O)NC2CCc3c2cn(C)c3C(=O)Nc2ccc(F)c(Cl)c2)n1` (single isomer, unassigned) [Compound 21, (1-Methyl-1H-pyrazol-3-yl)methyl(1-((3-chloro-4-fluorophenyl)carbamoyl)-2-methyl-2,4,5,6-tetrahydrocyclopenta[c]pyrrol-4-yl)carbamate]: the EC50 amounted to 0.04 µM.
In the case of `Cn1ccc(COC(=O)NC2CCc3c2cn(C)c3C(=O)Nc2ccc(F)c(Cl)c2)n1` (single isomer, unassigned) [Compound 22, (1-Methyl-1H-pyrazol-3-yl)methyl(1-((3-chloro-4-fluorophenyl)carbamoyl)-2-methyl-2,4,5,6-tetrahydrocyclopenta[c]pyrrol-4-yl)carbamate], the EC50 stood at 0.78 µM.
